Experimental data reported in patent publication US8252935B2, “Piperidinyl and piperazinyl modulators of γ-secretase” (Janssen Pharmaceutica N.V., priority 2007, dated 2012).

Each compound was assayed against γ-secretase (Homo sapiens, UniProt P49768) (assay: Screening for γ-secretase-modulating activity in SKNBE2 cells carrying APP 695 wild type (assay of Citron et al 1997)). Conditions: SKNBE2, @ 1 uM; SKNBE2 cells carrying the APP 695 wild type.
Assay type: cell-based
Procedure: Screening was carried out using SKNBE2 cells carrying the APP 695—wild type, grown in DMEM/NUT-mix F12 (HAM) provided by Gibco (cat no. 31330-38) containing 5% Serum/Fe supplemented with 1% non-essential amino acids. Cells were grown to near confluency. The screening was performed using the assay as described in Citron et al (1997) Nature Medicine 3: 67.

Row | SMILES | inhibition at 1 µM
1 | CC(C)C[C@@H](C(=O)O)c1cc(-c2ccc(C(F)(F)F)cc2)cc([C@@H]2CC[C@H](C(F)(F)F)NC2)c1 (relative stereo) [Example 35, 4-Methyl-2-[4′-trifluoromethyl-5-(6-trifluoromethyl-piperidin-3-yl)-biphenyl-3-yl]-pentanoic acid] | 8%
2 | CC(C)C[C@H](C(=O)O)c1cc(-c2ccc(C(F)(F)F)cc2)cc([C@H]2CC[C@@H](C(F)(F)F)NC2)c1 (single isomer, unassigned) [Example 36, 4-Methyl-2-[4′-trifluoromethyl-5-(6-trifluoromethyl-piperidin-3-yl)-biphenyl-3-yl]-pentanoic acid] | 40%
3 | CCC1CCCCN1c1cc(-c2ccc(C(F)(F)F)cc2)cc(C(CC(C)C)C(=O)O)c1 (stereo not drawn) [Example 2, 2-[5-(2-Ethyl-piperidin-1-yl)-4′-trifluoromethyl-biphenyl-3-yl]-4-methyl-pentanoic acid] | 45%
4 | CC(C)CC(C(=O)O)c1cc(-c2ccc(C(F)(F)F)cc2)cc(N2CCCCC2C)c1 (stereo not drawn) [Example 3, 4-Methyl-2-[5-(2-methyl-piperidin-1-yl)-4′-trifluoromethyl-biphenyl-3-yl]-pentanoic acid] | 23%
5 | CC(C)CC(C(=O)O)c1cc(-c2ccc(C(F)(F)F)cc2)cc(N2CCC(F)(F)CC2)c1 (stereo not drawn) [Example 5, 2-(5-(4,4-difluoropiperidin-1-yl)-4′-(trifluoromethyl)biphenyl-3-yl)-4-methylpentanoic acid] | 8%
6 | CC(C)CC(C(=O)O)c1cc(-c2ccc(C(F)(F)F)cc2)cc(C2CCCC(C)N2)c1 (stereo not drawn) [Example 6, 4-Methyl-2-[5-(6-methyl-piperidin-2-yl)-4′-trifluoromethyl-biphenyl-3-yl]-pentanoic acid] | 0%
7 | COc1ccc(CN2C(c3cc(-c4ccc(C(F)(F)F)cc4)cc(C(CC(C)C)C(=O)O)c3)CCCC2C(F)(F)F)cc1 (stereo not drawn) [Example 7, 2-{5-[1-(4-Methoxy-benzyl)-6-trifluoromethyl-piperidin-2-yl]-4′-trifluoromethyl-biphenyl-3-yl}-4-methyl-pentanoic acid] | 70%
8 | CC(C)CCN1CCCCC1c1cc(-c2ccc(C(F)(F)F)cc2)cc(C(CC(C)C)C(=O)O)c1 (stereo not drawn) [Example 10, 4-Methyl-2-{5-[1-(3-methyl-butyl)-piperidin-2-yl]-4′-trifluoromethyl-biphenyl-3-yl}-pentanoic acid] | 34%
9 | CN1C(c2cc(CC(=O)O)cc(-c3ccc(C(F)(F)F)cc3)c2)CCCC1C(F)(F)F (stereo not drawn) [Example 11, [5-(1-Methyl-6-trifluoromethyl-piperidin-2-yl)-4′-trifluoromethyl-biphenyl-3-yl]-acetic acid] | 23%
10 | CC(C)CC(C(=O)O)c1cc(-c2ccc(C(F)(F)F)cc2)cc(C2CCC(C(F)(F)F)CN2C)c1 (stereo not drawn) [Example 13, 4-Methyl-2-[5-(1-methyl-5-trifluoromethyl-piperidin-2-yl)-4′-trifluoromethyl-biphenyl-3-yl]-pentanoic acid] | 30%
11 | CC(C)CCN1C(c2cc(-c3ccc(C(F)(F)F)cc3)cc(C(F)(CC(C)C)C(=O)O)c2)CCCC1C(F)(F)F (stereo not drawn) [Example 16, 2-Fluoro-4-methyl-2-{5-[1-(3-methyl-butyl)-6-trifluoromethyl-piperidin-2-yl]-4′-trifluoromethyl-biphenyl-3-yl}-pentanoic acid] | 0%
12 | CC(C)C[C@H](C(=O)O)c1cc(-c2ccc(C(F)(F)F)cc2)cc([C@H]2CCC[C@@H](C(F)(F)F)N2)c1 [Example 19, (S) 4-Methyl-2-[4′-trifluoromethyl-5-(6-trifluoromethyl-piperidin-2-yl)-biphenyl-3-yl]-pentanoic acid] | 48%
13 | CC(C)CCN1C(c2cc(-c3ccc(C(F)(F)F)cc3)cc(C(F)(F)C(=O)O)c2)CCCC1C(F)(F)F (stereo not drawn) [Example 22, Difluoro-{5-[1-(3-methyl-butyl)-6-trifluoromethyl-piperidin-2-yl]-4′-trifluoromethyl-biphenyl-3-yl}-acetic acid] | 35%
14 | CC(C)CC(C(=O)O)c1cc(-c2ccc(C(F)(F)F)cc2)cc(C2CCC(C(F)(F)F)CN2)c1 (stereo not drawn) [Example 23, 4-Methyl-2-[4′-trifluoromethyl-5-(5-trifluoromethyl-piperidin-2-yl)-biphenyl-3-yl]-pentanoic acid] | 30%
15 | CCC(CC)N1CCCC(c2cc(-c3ccc(C(F)(F)F)cc3)cc(C(CC(C)C)C(=O)O)c2)C1 (stereo not drawn) [Example 33, 2-{5-[1-(1-Ethyl-propyl)-piperidin-3-yl]-4′-trifluoromethyl-biphenyl-3-yl}-4-methyl-pentanoic acid] | 22%
16 | CC(C)CC(C(=O)O)c1cc(-c2ccc(C(F)(F)F)cc2)cc(C2CCCN(Cc3ccc(-n4cccc4)cc3)C2)c1 (stereo not drawn) [Example 44, 4-Methyl-2-{5-[1-(4-pyrrol-1-yl-benzyl)-piperidin-3-yl]-4′-trifluoromethyl-biphenyl-3-yl}-pentanoic acid] | 46%
17 | CC(C)CC(C(=O)O)c1cc(-c2ccc(C(F)(F)F)cc2)cc(C2CCCN(Cc3ccc(Oc4ccc(F)cc4)cc3)C2)c1 (stereo not drawn) [Example 48, 2-(5-{1-[4-(4-Fluoro-phenoxy)-benzyl]-piperidin-3-yl}-4′-trifluoromethyl-biphenyl-3-yl)-4-methyl-pentanoic acid] | 59%
18 | CC(C)CC(C(=O)O)c1cc(-c2ccc(C(F)(F)F)cc2)cc(C2CCCN(Cc3ccc4nnsc4c3)C2)c1 (stereo not drawn) [Example 49, 2-[5-(1-Benzo[1,2,3]thiadiazol-6-ylmethyl-piperidin-3-yl)-4′-trifluoromethyl-biphenyl-3-yl]-4-methyl-pentanoic acid] | 54%
19 | CC(C)CC(C(=O)O)c1cc(-c2ccc(C(F)(F)F)cc2)cc(C2CCCN(Cc3ccc4nnn(C)c4c3)C2)c1 (stereo not drawn) [Example 50, 4-Methyl-2-{5-[1-(3-methyl-3H-benzotriazol-5-ylmethyl)-piperidin-3-yl]-4′-trifluoromethyl-biphenyl-3-yl}-pentanoic acid] | 17%

Continued, values first:

Row | inhibition at 1 µM | SMILES
20 | 75% | CC(C)CCC(c1ccc(C(F)(F)F)cc1)N1CCCC(c2cc(-c3ccc(C(F)(F)F)cc3)cc(C(CC(C)C)C(=O)O)c2)C1 (single isomer, unassigned) [Example 56, (R*) 4-Methyl-2-(5-{1-[4-methyl-1-(4-trifluoromethyl-phenyl)-pentyl]-piperidin-3-yl}-4′-trifluoromethyl-biphenyl-3-yl)-pentanoic acid]
21 | 44% | CC(C)CC(C(=O)O)c1cc(-c2ccc(C(F)(F)F)cc2)cc(C2CCCN(C(C)c3ccc(C(F)(F)F)cc3)C2)c1 (single isomer, unassigned) [Example 63, (S*)-4-Methyl-2-(4′-trifluoromethyl-5-{1-[1-(4-trifluoromethyl-phenyl)-ethyl]-piperidin-3-yl}-biphenyl-3-yl)-pentanoic acid]
22 | 23% | CC(C)CC(C(=O)O)c1cc(-c2ccc(C(F)(F)F)cc2)cc(C2CCC(C(F)(F)F)N(Cc3ccncc3)C2)c1 (stereo not drawn) [Example 25, 4-Methyl-2-[5-(1-pyridin-4-ylmethyl-6-trifluoromethyl-piperidin-3-yl)-4′-trifluoromethyl-biphenyl-3-yl]-pentanoic acid]
23 | 68% | CC(C)CC(C(=O)O)c1cc(-c2ccc(C(F)(F)F)cc2)cc(C2CCC(C(F)(F)F)N(Cc3cccc(C(F)(F)F)c3)C2)c1 (stereo not drawn) [Example 28, 4-Methyl-2-{4′-trifluoromethyl-5-[6-trifluoromethyl-1-(3-trifluoromethyl-benzyl)-piperidin-3-yl]-biphenyl-3-yl}-pentanoic acid]
24 | 70% | CC(C)CC(C(=O)O)c1cc(-c2ccc(C(F)(F)F)cc2)cc(C2CCCN(S(=O)(=O)c3cccc(C(F)(F)F)c3)C2)c1 (stereo not drawn) [Example 40, 4-Methyl-2-{4′-trifluoromethyl-5-[1-(3-trifluoromethyl-benzenesulfonyl)-piperidin-3-yl]-biphenyl-3-yl}-pentanoic acid]
25 | 70% | CC(C)CC(C(=O)O)c1cc(-c2ccc(C(F)(F)F)cc2)cc(C2CCCN(S(=O)(=O)c3cccc4cnccc34)C2)c1 (stereo not drawn) [Example 41, 2-{5-[1-(Isoquinoline-5-sulfonyl)-piperidin-3-yl]-4′-trifluoromethyl-biphenyl-3-yl}-4-methyl-pentanoic acid]
26 | 63% | CC(C)CC(C(=O)O)c1cc(-c2ccc(C(F)(F)F)cc2)cc(C2CCCN(S(=O)(=O)c3ccccc3C(F)(F)F)C2)c1 (stereo not drawn) [Example 42, 4-Methyl-2-{4′-trifluoromethyl-5-[1-(2-trifluoromethyl-benzenesulfonyl)-piperidin-3-yl]-biphenyl-3-yl}-pentanoic acid]
27 | 55% | CC(C)CC(C(=O)O)c1cc(-c2ccc(C(F)(F)F)cc2)cc(C2CCCN(C(=O)c3ccc(C(F)(F)F)cc3)C2)c1 (stereo not drawn) [Example 43, 4-Methyl-2-{4′-trifluoromethyl-5-[1-(4-trifluoromethyl-benzoyl)-piperidin-3-yl]-biphenyl-3-yl}-pentanoic acid]
28 | 57% | CC(C)CC(C(=O)O)c1cc(-c2ccc(C(F)(F)F)cc2)cc(C2CCCN(Cc3ccc4ccccc4c3)C2)c1 (stereo not drawn) [Example 46, 4-Methyl-2-[5-(1-naphthalen-2-ylmethyl-piperidin-3-yl)-4′-trifluoromethyl-biphenyl-3-yl]-pentanoic acid]
29 | 61% | CC(C)CC(C(=O)O)c1cc(-c2ccc(C(F)(F)F)cc2)cc(C2CCCN(Cc3ccc(OC(F)(F)F)cc3)C2)c1 (stereo not drawn) [Example 47, 4-Methyl-2-{5-[1-(4-trifluoromethoxy-benzyl)-piperidin-3-yl]-4′-trifluoromethyl-biphenyl-3-yl}-pentanoic acid]
30 | 48% | COc1ccc(CN2CCCC(c3cc(-c4ccc(C(F)(F)F)cc4)cc(C(CC(C)C)C(=O)O)c3)C2)cc1C(F)(F)F (stereo not drawn) [Example 51, 2-{5-[1-(4-Methoxy-3-trifluoromethyl-benzyl)-piperidin-3-yl]-4′-trifluoromethyl-biphenyl-3-yl}-4-methyl-pentanoic acid]
